Data on one compound can be found in patent US7311892B2, “Multidrug multiligand conjugates for targeted drug delivery” (priority 2001, dated 2007).

The term inhibition denotes the relative decrease from the control value, in per cent.

For test [1], the system named is NCI-H1299 non-small cell lung cancer cells. Briefly: Apoptosis induction assay (Annexin V-FITC, flow cytometry). As to conditions: 50 nM, 3 hours exposure, then drug-free medium; analysed after 96 hours; triplicate. It counts as cell-based. How it is done: Apoptosis was measured by an Annexin V-FITC kit. […] 2.3%, 2.5% and 2.4% induction for untreated cells, free PTX, the BTN/SaV complex and the BTN/SaV+PTX controls, respectively.
FIG. 6 illustrates the results of an apoptosis induction assay, illustrating NCI-HI299 cells are induced to undergo apoptosis specifically in response to the PTX-BBN[7-13]-BTN-SaV conjugate. Cells were grown as described above and in Example 3 and left untreated or treated with 50 nM of the PTX-BBN[7-13]-BTN-SaV conjugate, unconjugated paclitaxel (PTX), the biotin/streptavidin complex (BTN/SaV) or a mixture of BTN/SaV and PTX. After 3 hours, the media containing these additives was removed and replaced with fresh media. After 96 hours, the cells were removed from the 24 well plates by treatment with trypsin/EDTA and analyzed for Annexin V by flow cytometry using an Annexin V-FITC kit (Biovision, Palo Alto, Calif.). All treatments were done in triplicate and presented as the percentage of cells staining with Annexin V-FITC. […]
The HI299 cells were plated in 24 well plates at a density of 10,000 cells/well and allowed to adhere for 24 hours. […] After 96 hours, the cells were removed from the 24 well plates by treatment with trypsin/EDTA and analyzed for Annexin V by flow cytometry using an Annexin V-FITC kit (Biovision, Palo Alto, Calif.). […]

Test [2] has the same test system. Briefly: Cell proliferation assay. It counts as cell-based. As to conditions: Homo sapiens, 50 nM, 3 hours exposure, then drug-free medium, cells counted after 96 hours, normalized to untreated cells, quadruplicate, read-out: growth inhibition. How it is done: Cells were grown as described in Example 2 and exposed to various treatments. The cells were left untreated or treated with 50 nM of the PTX-BBN[7-13]-BTN-SaV conjugate, unconjugated paclitaxel (PTX), the biotin/streptavidin complex (BTN/SaV) or a mixture of BTN/SaV and PTX. After 3 hours, the media containing these additives was removed and replaced with fresh media. After 96 hours, the cells were removed from the 24 well plates by treatment with trypsin/EDTA and counted with a Coulter particle counter. All treatments were done in quadruplicate and the cell counts were normalized to the untreated cells.
To evaluate the growth inhibitory effects of the PTX-BBN[7-13]-BTN/SaV conjugate, experiments were designed to compare the effect of the conjugate with the unconjugated paclitaxel, the BTN/SaV complex and a mixture of free PTX and the BTN/SaV complex (FIG. 5).
The HI299 cells were plated in 24 well plates at a density of 10,000 cells/well and allowed to adhere for 24 hours. The cells were treated with 50 nM of the following: 1) no treatment (Untreated); 2) unconjugated paclitaxel(PTX); 3) biotin/streptavidin complex (BTN/SaV); 4) a mixture of BTN/SaV and PTX; and 5) the PTX-BBN[7-13]-BTN/SaV conjugate (Conjugate) described in FIG. 1A. […] After 96 hours, the cells were removed from the 24 well plates by treatment with trypsin/EDTA and counted with a Coulter particle counter. […]

Consider `CC(=O)O[C@H]1C(=O)[C@@]2(C)[C@H]([C@H](OC(=O)c3ccccc3)[C@]3(O)C[C@H](OC(=O)[C@H](O)[C@@H](NC(=O)c4ccccc4)c4ccccc4)C(C)=C1C3(C)C)[C@]1(OC(C)=O)CO[C@@H]1C[C@@H]2O` [free PTX, paclitaxel], for which the “induction of apoptosis (percentage of cells staining with Annexin V-FITC)” value in test [1] is recorded as approximately 2.3%. Further, in test [2], the inhibition at 0.05 µM turned out to be 0%.
